# Experimental data published in PubChem BioAssay (NCI).
#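 Following 48 hours of exposure in 96-well plates, responses at five concentrations were used to interpolate endpoints linearly. GI50 is the concentration that inhibits growth by half. TGI is the concentration that stops growth completely.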
# Tests used:
# Assay in all cases: DTP human tumour cell line panel, 48 h
# UACC-257 melanoma = test system: UACC-257 melanoma
# HS 578T breast = test system: HS 578T breast
# TK-10 renal = test system: TK-10 renal
# HT29 colon = test system: HT29 colon
# COLO 205 colon = test system: COLO 205 colon
# U251 CNS = test system: U251 CNS
# HOP-92 NSCLC = test system: HOP-92 NSCLC
# MDA-MB-435 = test system: MDA-MB-435
# SW-620 colon = test system: SW-620 colon
# T-47D breast = test system: T-47D breast
# SF-268 CNS = test system: SF-268 CNS
# MCF7 breast = test system: MCF7 breast
# M14 melanoma = test system: M14 melanoma
# A498 renal = test system: A498 renal
# SR leukemia = test system: SR leukemia
# HL-60(TB) leukemia = test system: HL-60(TB) leukemia
# CAKI-1 renal = test system: CAKI-1 renal
# CCRF-CEM leukemia = test system: CCRF-CEM leukemia
# DU-145 prostate = test system: DU-145 prostate
# NCI-H226 lung = test system: NCI-H226 lung
# SK-MEL-2 melanoma = test system: SK-MEL-2 melanoma
# RXF 393 renal = test system: RXF 393 renal
# UO-31 renal = test system: UO-31 renal
# NCI-H522 lung = test system: NCI-H522 lung
# NCI-H23 lung = test system: NCI-H23 lung
# NCI/ADR-RES ovarian = test system: NCI/ADR-RES ovarian
# OVCAR-3 ovarian = test system: OVCAR-3 ovarian
# KM12 colon = test system: KM12 colon
# EKVX NSCLC = test system: EKVX NSCLC
# HCT-116 colon = test system: HCT-116 colon
# MOLT-4 leukemia = test system: MOLT-4 leukemia
# SK-OV-3 ovarian = test system: SK-OV-3 ovarian
# OVCAR-5 ovarian = test system: OVCAR-5 ovarian
# SNB-75 CNS = test system: SNB-75 CNS
# OVCAR-8 ovarian = test system: OVCAR-8 ovarian
# OVCAR-4 ovarian = test system: OVCAR-4 ovarian
# SF-295 CNS = test system: SF-295 CNS
# HOP-62 NSCLC = test system: HOP-62 NSCLC
# NCI-H460 lung = test system: NCI-H460 lung
# A549 NSCLC = test system: A549 NSCLC
# PC-3 prostate = test system: PC-3 prostate
# SNB-19 CNS = test system: SNB-19 CNS
# HCT-15 colon = test system: HCT-15 colon
# BT-549 breast = test system: BT-549 breast
# LOX IMVI melanoma = test system: LOX IMVI melanoma
compound,measurement,setting,value
COC1=CC(c2ccc[nH]2)=N/C1=C\c1[nH]c(C)c(C)c1CCC(=O)OCc1ccccc1,GI50,UACC-257 melanoma,1270 nM
same,TGI,UACC-257 melanoma,2970 nM
same,GI50,HS 578T breast,289 nM
same,TGI,HS 578T breast,1680 nM
same,GI50,TK-10 renal,390 nM
same,TGI,TK-10 renal,3090 nM
same,GI50,HT29 colon,191 nM
same,TGI,HT29 colon,1360 nM
same,GI50,COLO 205 colon,257 nM
same,TGI,COLO 205 colon,1150 nM
same,GI50,U251 CNS,322 nM
same,TGI,U251 CNS,1520 nM
same,GI50,HOP-92 NSCLC,217 nM
same,TGI,HOP-92 NSCLC,732 nM
same,GI50,MDA-MB-435,440 nM
same,TGI,MDA-MB-435,1640 nM
same,GI50,SW-620 colon,322 nM
same,TGI,SW-620 colon,1620 nM
same,GI50,T-47D breast,227 nM
same,TGI,T-47D breast,876 nM
same,GI50,SF-268 CNS,369 nM
same,TGI,SF-268 CNS,2920 nM
same,GI50,MCF7 breast,293 nM
same,TGI,MCF7 breast,2190 nM
same,GI50,M14 melanoma,285 nM
same,TGI,M14 melanoma,1000 nM
same,GI50,A498 renal,563 nM
same,TGI,A498 renal,1990 nM
same,GI50,SR leukemia,175 nM
same,TGI,SR leukemia,618 nM
same,GI50,HL-60(TB) leukemia,799 nM
same,TGI,HL-60(TB) leukemia,3460 nM
same,GI50,CAKI-1 renal,300 nM
same,TGI,CAKI-1 renal,2080 nM
same,GI50,CCRF-CEM leukemia,142 nM
same,TGI,CCRF-CEM leukemia,2590 nM
same,GI50,DU-145 prostate,446 nM
same,TGI,DU-145 prostate,6820 nM
same,GI50,NCI-H226 lung,377 nM
same,TGI,NCI-H226 lung,2460 nM
same,GI50,SK-MEL-2 melanoma,572 nM
same,TGI,SK-MEL-2 melanoma,2100 nM
same,GI50,RXF 393 renal,496 nM
same,TGI,RXF 393 renal,1830 nM
same,GI50,UO-31 renal,209 nM
same,TGI,UO-31 renal,459 nM
same,GI50,NCI-H522 lung,256 nM
same,TGI,NCI-H522 lung,1620 nM
same,GI50,NCI-H23 lung,382 nM
same,TGI,NCI-H23 lung,2550 nM
same,GI50,NCI/ADR-RES ovarian,382 nM
same,TGI,NCI/ADR-RES ovarian,2010 nM
same,GI50,OVCAR-3 ovarian,304 nM
same,TGI,OVCAR-3 ovarian,1350 nM
same,GI50,KM12 colon,242 nM
same,TGI,KM12 colon,1800 nM
same,GI50,EKVX NSCLC,281 nM
same,TGI,EKVX NSCLC,1900 nM
same,GI50,HCT-116 colon,65 nM
same,TGI,HCT-116 colon,1110 nM
same,GI50,MOLT-4 leukemia,240 nM
same,TGI,MOLT-4 leukemia,1440 nM
same,GI50,SK-OV-3 ovarian,1790 nM
same,TGI,SK-OV-3 ovarian,5160 nM
same,GI50,OVCAR-5 ovarian,709 nM
same,TGI,OVCAR-5 ovarian,7070 nM
same,GI50,SNB-75 CNS,226 nM
same,TGI,SNB-75 CNS,728 nM
same,GI50,OVCAR-8 ovarian,366 nM
same,TGI,OVCAR-8 ovarian,1440 nM
same,GI50,OVCAR-4 ovarian,246 nM
same,TGI,OVCAR-4 ovarian,4430 nM
same,GI50,SF-295 CNS,224 nM
same,TGI,SF-295 CNS,894 nM
same,GI50,HOP-62 NSCLC,355 nM
same,TGI,HOP-62 NSCLC,1840 nM
same,GI50,NCI-H460 lung,623 nM
same,TGI,NCI-H460 lung,10800 nM
same,GI50,A549 NSCLC,602 nM
same,TGI,A549 NSCLC,11100 nM
same,GI50,PC-3 prostate,277 nM
same,TGI,PC-3 prostate,5870 nM
same,GI50,SNB-19 CNS,676 nM
same,TGI,SNB-19 CNS,14000 nM
same,GI50,HCT-15 colon,305 nM
same,TGI,HCT-15 colon,1180 nM
same,GI50,BT-549 breast,378 nM
same,TGI,BT-549 breast,2900 nM
same,GI50,LOX IMVI melanoma,217 nM
same,TGI,LOX IMVI melanoma,705 nM
